From US20150038589A1, “Nutritional Product Comprising a Biguanide” (priority 2011, published 2015)

How the values were obtained:
[1] = cited from earlier work
[2] = Cookie comprising metformin consumed by human volunteers; blood samples; format: in vivo; details: one cookie (250 mg metformin); for concentration at 1 h / concentration at 2 h / concentration at 4 h / concentration at 0 h: human, blood, oral, 250 mg, empty stomach; for concentration at 1 h: 1 hr after consumption; for concentration at 2 h: 2 hrs after consumption; for concentration at 4 h: 4 hrs after consumption; for concentration at 0 h: before consumption
Protocol: A cookie dough was prepared comprising 1000 mg fine-ground metformin per 100 g conventional cookie dough, by mixing fine-ground metformin into the dough. 40 droplets of lemon juice per 100 g dough were added to the dough comprising the metformin, in order to neutralise the bitter taste of the metformin. Thereafter, the dough was divided in pieces of 25 g, from which pieces cookies were baked in a conventional way.
Human volunteers each consumed one cookie (providing 250 mg metformin) on an empty stomach. Blood samples were taken before consumption, 1 hour after consumption, 2 hours after consumption and 4 hours after consumption.

[3] = Stability test of metformin in yoghurt (pH and metformin content); format: physicochemical
Protocol: Yoghurt is prepared as described in Example 3. A batch comprising no metformin (placebo), a batch comprising 200 mg metformin per 100 gram (low dosage) and a batch comprising 360 mg metformin (high dosage) were made.
Part of the batches were stored in a fridge (about 4° C.), other parts at room temperature (about 20° C.). Product stability was determined by measuring pH and the metformin content (measured amount as a percentage of the added amount), weekly for a period of 35 days. […] Stability at room temperature was determined for only 35 days. Tables 6 and 7 show the measured amount of metformin in both products comprising metformin (relative to calculated amount=100%). No metformin was measured in the placebo.

[4] = Clinical test: double-blind trial of yoghurt drink with added metformin, 6 weeks; details: for Hyperinsulinaemia Internationale Unit / fasting glucose: change after 42 days
[5] = up to 4 hours after consumption
[6] = Trial group I (n = 6), 250 mg metformin/day in yoghurt, after 42 days
[7] = Trial group I (n = 6), 250 mg metformin/day in yoghurt
[8] = Trial group II (n = 4), 450 mg metformin/day in yoghurt, after 42 days
[9] = Trial group II (n = 4), 450 mg metformin/day in yoghurt
[10] = subjects with the product of the invention, after 42 days

Compound: CN(C)C(=N)NC(=N)N [metformin, N,N-dimethylimidodicarbonimidic diamide]
- subjects with a reduction in B12 levels in blood ([1]; conventional dosage form such as a tablet): about 30%
- subjects suffering from stomach complaints and diarrhoea ([1]; conventional pharmaceutical composition comprising biguanide (metformin)): roughly 30%
- concentration at 1 h ([2]; subject 1): < 0.5 µg/mL
- concentration at 2 h ([2]; subject 1): 0.7 µg/mL
- concentration at 4 h ([2]; subject 1): 0.8 µg/mL
- concentration at 0 h ([2]; subject 1): < 0.5 µg/mL
- concentration at 1 h ([2]; subject 2): < 0.5 µg/mL
- concentration at 2 h ([2]; subject 2): < 0.5 µg/mL
- concentration at 4 h ([2]; subject 2): 0.6 µg/mL
- concentration at 0 h ([2]; subject 2): < 0.5 µg/mL
- negative side-effects ([2]; during the experiment): no negative side-effects were observed
- glucose levels in blood samples [2, 5]: no significant changes
- lipid levels in blood samples [2, 5]: no significant changes
- degradation of metformin in a fermented (acidic) product ([3]; 28 days (room temperature) or 35 days (refrigerator temperature)): no substantial degradation
- storage stability in a nutritional product ([3]; metformin included in a nutritional product): at least 5 weeks
- insulin resistance improvement (HOMA-2) [4, 6]: −0.13
- side-effects: abdominal pain (number of subjects) [4, 6]: 0
- side-effects: diarrhoea (number of subjects) [4, 6]: 0
- side-effects: fatigue (number of subjects) [4, 6]: 0
- side-effects: reflux (number of subjects) [4, 6]: 0
- side-effects: stomach pain (number of subjects) [4, 6]: 1
- side-effects: vertigo (number of subjects) [4, 6]: 0
- Δ waist size [4, 6]: −2.0 cm
- Δ weight [4, 6]: -1.9 kg
- Hyperinsulinaemia Internationale Unit [4, 7]: −1.4 Internationale Unit
- fasting glucose [4, 7]: -0.12 mmol/L
- insulin resistance improvement (HOMA-2) [4, 8]: −3.9
- side-effects: abdominal pain (number of subjects) [4, 8]: 0
- side-effects: diarrhoea (number of subjects) [4, 8]: 0
- side-effects: fatigue (number of subjects) [4, 8]: 0
- side-effects: reflux (number of subjects) [4, 8]: 0
- side-effects: stomach pain (number of subjects) [4, 8]: 0
- side-effects: vertigo (number of subjects) [4, 8]: 0
- Δ waist size [4, 8]: −3.1 cm
- Δ weight [4, 8]: -1.9 kg
- Hyperinsulinaemia Internationale Unit [4, 9]: −3.9 Internationale Unit
- fasting glucose [4, 9]: -0.68 mmol/L
- concentration at 24 h ([4]; both, human, blood, oral): < 0.25 µg/mL
- subjects indicating a reduced appetite ([4]; out of 10 subjects in the trial group (1 in the placebo group)): 4
- reduction in waist size compared to the placebo [4, 10]: 2-3 fold
- weight loss compared to the placebo [4, 10]: 3 fold
- blood HDL concentration change ([4]; trial group I, after 42 days): No change
- decrease in pulse ([4]; trial group I, after 42 days): −6
- blood HDL concentration change ([4]; trial group II (450 mg metformin per day), after 42 days): +0.12
- decrease in pulse ([4]; trial group II, after 42 days): −2
